Columns and labels:
SHP2 = biological target: T1, SHP2 (Homo sapiens, UniProt Q06124); assay: SHP2 in-vitro enzymology experiment (Homogeneous Full Length SHP-2 Assay Kit, DiFMUP substrate); type: biochemical; settings: 60 min pre-incubation, 30 min reaction at 25° C.
T1 construct: Homogeneous Full Length SHP-2 Assay Kit (purchased from BPS Bioscience); purchased BPS Bioscience
T1 sequence (Q06124 1-593): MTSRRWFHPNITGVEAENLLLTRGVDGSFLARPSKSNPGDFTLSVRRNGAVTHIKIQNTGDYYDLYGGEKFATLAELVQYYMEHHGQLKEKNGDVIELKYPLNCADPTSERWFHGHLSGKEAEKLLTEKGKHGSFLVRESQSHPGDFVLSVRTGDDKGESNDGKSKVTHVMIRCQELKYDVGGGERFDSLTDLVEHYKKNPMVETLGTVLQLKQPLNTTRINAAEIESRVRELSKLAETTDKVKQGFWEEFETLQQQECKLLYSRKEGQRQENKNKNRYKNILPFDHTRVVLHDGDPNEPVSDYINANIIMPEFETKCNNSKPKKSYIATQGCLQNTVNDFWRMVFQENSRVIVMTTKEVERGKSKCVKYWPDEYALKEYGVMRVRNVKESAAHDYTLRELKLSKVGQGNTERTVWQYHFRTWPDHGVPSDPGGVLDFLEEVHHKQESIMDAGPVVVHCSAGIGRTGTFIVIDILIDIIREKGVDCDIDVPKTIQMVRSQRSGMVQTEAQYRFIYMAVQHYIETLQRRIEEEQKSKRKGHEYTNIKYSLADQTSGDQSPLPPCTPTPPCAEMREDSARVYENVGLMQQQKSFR
Method: Experimental materials: Homogeneous Full Length SHP-2 Assay Kit (purchased from BPS Bioscience) and NIVO multimode microplate reader.
Preparation of 1× buffer (ready-to-use): 5× buffer was diluted with deionized water to give 1× buffer, which was then placed on ice for later use.
Each test compound was diluted with 100% DMSO to 100 μM as the first concentration, and then diluted in a 4-fold gradient to the 8th concentration (i.e., from 100 μM to 6.1 nM) using a multi-channel pipette. Each gradient of the test compound was diluted with 1× buffer to prepare a working solution with 10% DMSO. The resulting solution was then added to the corresponding wells of a plate at 5 μL/well, with duplicate wells set up. The plate was then centrifuged at 1000 rpm for 1 min.
18 μL of a prepared reaction mixed solution (containing 12.25 μL of deionized water, 5 μL of 5× buffer; 0.25 μL of SHP-2 substrate polypeptide (100 μM), and 0.5 μL of DTT (250 mM)) was added to each well. The plate was then centrifuged at 1000 rpm for 1 min.
An SHP-2 enzyme was diluted to 0.1 ng/μL with 1× buffer. The resulting solution was added to the corresponding wells at 2 μL/well, and 2 μL of 1× buffer and […] were added to each negative control well. This step was performed on ice. The reaction system was then incubated at 25° C. for 60 min for compound pre-incubation.
After the compound pre-incubation was completed, 25 μL of a substrate working solution (containing 19.45 μL of deionized water, 5 μL of 5× buffer; 0.5 μL of DTT (250 mM), and 0.05 μL of SHP-2 Substrate (DiFMUP) (10 mM)) was added to each well, and the reaction system was allowed to react at 25° C. for 30 min. At that time, the final concentration gradient of the compound ranged from 1 μM to 0.061 nM. After the reaction was completed, the fluorescence values were read using the NIVO multimode microplate reader, with an excitation wavelength of 360 nm and an emission wavelength of 460 nm.
Detection of compound background reading values: Each gradient of the test compound diluted with 100% DMSO was added to a new compound plate at 5 μL/well, and then 1× buffer was added at 45 μL/well to achieve a 10-fold dilution to prepare a working solution with 10% DMSO. Next, the compound working solution was added to the detection plate at 5 μL/well, and then 1× buffer was added at 45 μL/well to achieve another 10-fold dilution, bringing the final concentration of DMSO to 1%. The plate was then centrifuged at 1000 rpm for 1 min. The fluorescence values were read using the multimode microplate reader, with an excitation wavelength of 360 nm and an emission wavelength of 460 nm.
The original data were converted to inhibition rates and the IC50 values were obtained by curve fitting using a four-parameter method.

[1] = tested on: H358 cells (NCIH358_LUNG); assay: Anti-proliferation experiment on tumor cells with KRAS mutations, H358 (3D CellTiter-Glo); type: cell-based; settings: Homo sapiens, NCI-H358, 120 h, 5 days incubation with compound, ultra-low attachment plate
Description: (§1) Cell culture medium, penicillin/streptomycin antibiotics purchased from Wisent, and fetal bovine serum purchased from Biosera; 3D CellTiter-Glo (chemiluminescence detection reagent for cell viability) reagent purchased from Promega; Cell lines purchased from Nanjing Cobioer Biosciences Co., Ltd. and Wuhan Procell Life Science & Technology Co., Ltd; and Envision multimode microplate reader (PerkinElmer).
(§2) Different types of tumor cells were each seeded in an ultra-low attachment 96-well U-bottom plate, with 80 μL of cell suspension per well. The cell plate was incubated in a CO2 incubator overnight.
(§3) Each test compound was diluted in a 5-fold gradient to the 9th concentration (i.e., from 2 mM to 5.12 nM or from 200 μM to 0.512 nM) using a multi-channel pipette, with duplicate wells set up. 78 μL of medium was added to an intermediate plate, and the serially diluted compound was transferred to the corresponding wells of the intermediate plate at 2 μL/well. The mixture was mixed well and then transferred to the cell plate at 20 µL/well. The concentration of the compound transferred to the cell plate ranged from 10 μM to 0.0256 nM or from 1 μM to 0.00256 nM. The cell plate was then incubated in a CO2 incubator for 3-6 days.
(§4) The chemiluminescence detection reagent for cell viability was added to the cell plate at 100 μL/well, and the luminescence signals were stabilized by incubation for 10 min at room temperature. Readings were taken using the multimode microplate reader.
(§5) The original data were converted to inhibition rates and then the IC50 values were obtained by curve fitting using a four-parameter method (obtained from the “log(inhibitor) vs. response—Variable slope” model in GraphPad Prism). Table 2 illustrates the inhibitory activity of the compounds disclosed herein against the proliferation of different types of tumor cells.

[2] = tested on: MiaPaCa-2 cells (MIAPACA2_PANCREAS); assay: Anti-proliferation experiment on tumor cells with KRAS mutations, MiaPaCa-2 (3D CellTiter-Glo); type: cell-based; settings: Homo sapiens, MIA PaCa-2, 72 h, 3 days incubation with compound, ultra-low attachment plate
Description: as §1, §2, §3, §4, §5

[3] = tested on: ERK phosphorylation in H358 cells; assay: Inhibitory activity against ERK phosphorylation in H358 cells (HTRF Phospho-ERK1/2 kit); type: cell-based; settings: Homo sapiens, NCI-H358; starved H358 cells, 1 h compound incubation; read-out: H358 cell ERK phosphorylation IC50
Method: H358 cells purchased from Nanjing Cobioer Biosciences Co., Ltd., 1640 medium purchased from Biological industries, fetal bovine serum purchased from Biosera, and Advanced Phospho-ERK1/2 (THR202/TYR204) KIT purchased from Cisbio.
• 1. H358 cells were plated in a transparent 96-well cell culture plate, with 80 μL of cell suspension per well, each well containing 10000 H358 cells. The cell plate was incubated in a CO2 incubator at 37° C. overnight. • 2. The cell supernatant was discarded, and a starvation medium (1640+0.02% fetal bovine serum+1% […]) was added at 80 μL/well. The cell plate was then incubated in a CO2 incubator for cell starvation treatment overnight; • 3. Each test compound was diluted with 100% DMSO to 4 mM as the first concentration, and then diluted in a 5-fold gradient to the 8th concentration (i.e., from 4 mM to […]) using a pipette. 1 μL of the compound was then added to 79 μL of cell starvation medium. The mixture was mixed well, and then the compound solution was added to the corresponding wells of the cell plate at 20 μL/well. The cell plate was then put back to the CO2 incubator for incubation for another 1 h. At that time, the concentration of the compound ranged from 10 μM to 0.0256 nM, with the concentration of DMSO being 0.25%. • 4. After the incubation was completed, the cell supernatant was discarded, and a cell lysis buffer was added at 50 μL/well. The plate was then incubated with shaking at room temperature for 30 min. 5. The Phospho-ERK1/2 Eu Cryptate antibody and Phospho-ERK1/2 d2 antibody were diluted in a 20-fold gradient with the Detection buffer. • 6. 16 μL of the cell lysate supernatant from each well was transferred to a new 384-well white microplate, and then 2 μL of the Phospho-ERK1/2 Eu Cryptate antibody dilution and 2 μL of the Phospho-ERK1/2 d2 antibody dilution were added to each well. The mixture was incubated at room temperature for 4 h. • 7. After the incubation was completed, HTRF values were read using a multimode microplate reader, with an excitation wavelength of 320 nm and emission wavelengths of 615 nm and 665 nm.
The original data were converted to inhibition rates and then the IC50 values were obtained by curve fitting using a four-parameter method.

`Cc1nc(N2CCC3(CC2)Cn2nccc2C3N)c(CO)nc1Sc1cccc(Cl)c1Cl` (stereo not drawn) [Compound 3] gave an IC50 (SHP2) of 2.28 nM, an IC50 [1] of 62.1 nM and an IC50 [2] of 35 nM. The IC50 [3] was 55.6 nM.
For `Cc1nc(N2CCC3(CC2)Cn2nccc2C3N)c(C(N)=O)nc1Sc1ccnc(N)c1Cl` (stereo not drawn) [Compound 5], the IC50 (SHP2) was 3.24 nM, the IC50 [1] was 43.1 nM and the IC50 [2] was 48.5 nM. The IC50 [3] was 45.3 nM.
For `CONc1nccc(Sc2nc(CO)c(N3CCC4(CC3)Cn3nccc3C4N)nc2C)c1Cl` (stereo not drawn) [Compound 8], the IC50 (SHP2) was 3.99 nM.
In the case of `Cc1nc(Sc2ccnc(N)c2Cl)cnc1N1CCC2(CC1)Cn1nccc1C2N` (stereo not drawn) [Compound 10], the IC50 (SHP2) is reported as 1.09 nM, the IC50 [1] is reported as 38.9 nM and the IC50 [2] is reported as 19.3 nM.

Source: patent publication US20240409543A1, “PYRROLOPYRAZOLE SPIRO COMPOUND” (CHIA TAI TIANQING PHARMACEUTICAL GROUP CO., LTD., priority 2021, published 2024)
